Patent US8148431B2, “Osteogenesis promoter containing β-cryptoxanthin as the active ingredient” (Kemin Health, L.C., priority 2002, dated 2012)
Marks after values point to notes of the source that are not given here.

Legend:
Type in all cases: cell-based, Wistar male rats
[1] = test system: diaphysis tissue of the femur (cortical bone); assay: Bone calcium level in cultured femoral diaphysis tissue pieces; conditions: diaphysis tissue; for Bone calcium level: mean ± SE; for Significant effect on increasing calcium level in the bone tissue (in words): Table 3 concentrations
Protocol: (§1) The femurs were extracted from rats (Wistar male rats; 4 to 5 weeks old) (purchased from Japan SLC Co., Ltd. and fed with solid Oriental yeast (MF)) under anesthesia with ether under a germfree condition. The femurs were each washed with 0.25 M sucrose solution, and then divided into the diaphysis (cortical bone) and metaphysis (cancellous bone). The bone tissue pieces were cultured in a culture medium (Dulbecco's modified culture medium containing 5% of glucose; serum-free medium) containing. β-cryptoxanthin, etc. at […] in an incubator filled with 5% CO2-95% air for 48 hours. β-cryptoxanthin used was “β-cryptoxanthin” of Extrasynthase Co., cycloheximide used was “Cycloheximide” of Sigma Co. Ltd., β-carotene was “β-carotene” of Sigma ? , xanthine was “Xanthine” of Sigma Co, Ltd., parathormone was “Parathormone” of Sigma Co. Ltd. and prostaglandin E2 was “Prostaglandin E2” of Sigma Co. Ltd. In the control, only the culture medium was used without β-cryptoxanthin or the like.
(§2) Bone calcium level in the bone tissue was determined. After the culture in the incubator, the tissue pieces were washed with 0.25 M sucrose solution and dried and then the bone was weighed. Then concentrated nitric acid was added to the tissue pieces. After the incineration at 120° C. for 12 hours, the bone calcium level was determined with an atomic absorption photometer (“Perkin-Elmer 303” of Perkin-Elmer Co.).
(§3) The bone component-increasing effect of β-cryptoxanthin was examined. The diaphysis and metaphysis tissue of the femur was cultured in the above-described culture medium containing β-cryptoxanthin (10^−5 to 10^−5 M) for 48 hours. Calcium level in the bone tissue, alkaline phosphatase activity (enzyme for accelerating the bone calcification) and the amount of deoxyribonucleic acid (DNA; index of number of cells in the bone tissue) were determined by the same methods as in Example 1. In each test group, the determination vas conducted 6 to 8 times and the results were represented by the average value and the standard error. The significant difference was determined by Student's t-test. The result was compared with that of the control. When P value was not higher than 0.01 (**) or not higher than 0.05 (*), the results were statistically significant.

[2] = test system: metaphysis tissue of the femur (cancellous bone); assay: Bone calcium level in cultured femoral metaphysis tissue pieces; conditions: metaphysis tissue; for Bone calcium level: mean ± SE; for Significant effect on increasing calcium level in the bone tissue (in words): Table 3 concentrations
Protocol: as §1, §2
as §3, with “The diaphysis and metaphysis tissue of the femur was cultured in the above-described culture medium containing β-cryptoxanthin (10^−5 to 10^−5 M) for 48 hours.” left out

[3] = test system: diaphysis tissue of the femur; assay: Bone resorption (PTH or prostaglandin E2): bone calcium level in cultured diaphysis tissue
Protocol: as §1, §2
(§4) The bone mineral dissolution-inhibiting effect of β-cryptoxanthin was examined. […] PTH also has a pathophysiologic role on the expression of osteoporosis caused by the aging. It is known that prostaglandin E2 also causes physiologic bone mineral dissolution. The diaphysis or metaphysis tissue of the femur was cultured in the presence of 10^−7 M PTH or 10^−5 M prostaglandin E2 for 48 hours and then calcium level in the bone tissue was determined. In another experiment, the culture was conducted in the same manner as that described above in the coexistence of them and β-cryptoxanthin (10^−8 M to 10^−6 M) and then calcium level in the bone tissue was determined. In each test group, the determination was conducted 6 to 8 times and the results were represented by the average value and the standard error. The significant difference was determined by Student's t-test. The result was compared with that of the control. When P value was not higher than 0.01 (*) as compared with the control or it is not higher than 0.1 (#) as compared with that of prostaglandin E2, the results were statistically significant.

[4] = test system: metaphysis tissue of the femur; assay: Bone resorption (PTH or prostaglandin E2): bone calcium level in cultured metaphysis tissue
Protocol: as §1, §2, §4

[5] = test system: diaphysis tissue of the femur (cortical bone); assay: Bone alkaline phosphatase activity in cultured femoral diaphysis tissue pieces; conditions: Table 2 (protein synthesis inhibitor experiment), diaphysis tissue, 10^−6 M (each agent), mean ± SE, n=6
Protocol: as §1
(§5) The expression level of alkaline phosphatase, which is the most important enzyme for the acceleration of the calcification of bones, was examined. The tissue pieces cultured in the incubator were washed in 0.25 M sucrose solution, then pulverized in 3 ml of 65 mM barbital buffer (pH 7-4) and treated with ultrasonic waves. The resultant liquid was centrifuged. The supernatant, as the enzyme solution, was determined by a method of Walter ad Schutt in Method of Enzymatic Analysis, Vol. 1-2, p. 856, Academic Press, New York, 1965). Namely, this method was carried out as follows: p-nitrophenylphosphoric acid was used as the substrate. 0.05 ml of the enzyme solution was added to 2 ml of diethanolamine buffer (pH 9.8). After the incubation at 37° C. for 30 minutes, 10 ml of 0.05 N NaOH was added to the mixture. The absorbance (405 nm) was determined with a spectrophotometer to determine bone alkaline phosphatase activity of a bone remedy or a compound known to be effective for the bones.
as §3

[6] = test system: metaphysis tissue of the femur (cancellous bone); assay: Bone alkaline phosphatase activity in cultured femoral metaphysis tissue pieces; conditions: Table 2 (protein synthesis inhibitor experiment), metaphysis tissue, 10^−6 M (each agent), mean ± SE, n=6
Protocol: as §1, §5, §3

[7] = test system: diaphysis tissue of the femur (cortical bone); assay: Bone DNA level in cultured femoral diaphysis tissue pieces; conditions: Table 2 (protein synthesis inhibitor experiment), diaphysis tissue, 10^−6 M (each agent), mean ± SE, n=6
Protocol: as §1
(§6) DNA level was determined as an index of the number of cells in the bone tissue. After the culture in an incubator, the tissue pieces were washed with 0.25 M sucrose solution and then the wet weight of them was determined. They were pulverized in 4 ml of 0.1 N NaOH. After the osmosis at 4° C. for 24 hours, the liquid mixture was centrifuged. The supernatant was taken as the sample and determined by a method of Ceriotti et al. (J. Biol. Chem., 241; 34-77, 1951). Namely, 1 ml of concentrated hydrochloric acid and 1 ml of 0.04% indole solution were added to 2 ml of the sample and then the resultant mixture was heated to 100° C. in boiling water. After quenching followed by the extraction with 4 ml of chloroform, the chloroform layer was taken to determine bone DNA level with a spectrophotometer (490 nm).
as §3

[8] = test system: metaphysis tissue of the femur (cancellous bone); assay: Bone DNA level in cultured femoral metaphysis tissue pieces; conditions: Table 2 (protein synthesis inhibitor experiment), metaphysis tissue, 10^−6 M (each agent), mean ± SE, n=6
Protocol: as §1, §6, §3

[9] = Comparative Example (Table 3), 10^−6 M, 48 h culture
[10] = Comparative Example (Table 3), 10^−7 M, 48 h culture
[11] = Table 2 (protein synthesis inhibitor experiment), 10^−6 M (each agent), n=6
[12] = 10^−7 M PTH, 48 h culture, vs control

Q: For `Oc1nc(O)c2[nH]cnc2n1` [Xanthine, 2,6-dihydroxypurine, reference compound], which Bone calcium level [1, 9] is on record?
A: Its Bone calcium level is 240.2 ± 8.46 mg/g dry weight.

Q: What about the Bone calcium level [1, 10] of the same molecule?
A: The Bone calcium level was 228.6 ± 7.08 mg/g dry weight.

Q: What about the “Significant effect on increasing calcium level in the bone tissue (in words)” value ([1]; 48 h culture) of the same molecule?
A: The value was “could not be obtained”.

Q: What about the Bone calcium level [2, 9] of the same molecule?
A: The Bone calcium level was 188.2 ± 3.34 mg/g dry weight.

Q: And the Bone calcium level [2, 10]?
A: The Bone calcium level was 189.8 ± 3.30 mg/g dry weight.

Q: And the “Significant effect on increasing calcium level in the bone tissue (in words)” value ([2]; 48 h culture)?
A: Its value is “could not be obtained”.

Q: Which “Effect of prostaglandin E2 on calcium level in the bone tissue (in words)” value ([3]; diaphysis tissue, prostaglandin E2 10^−5 M) does the source give for `CCCCC[C@H](O)/C=C/[C@H]1[C@H](O)CC(=O)[C@@H]1C/C=C\CCCC(=O)O` [Prostaglandin E2, reference compound] here?
A: Its value is “significant reduction”.

Q: What about the Bone calcium level ([3]; diaphysis tissue, prostaglandin E2 10^−5 M alone, 48 h culture) of the same molecule?
A: The Bone calcium level was 182.8 ± 4.06* mg/g dry weight.

Q: What about the “Effect of prostaglandin E2 on calcium level in the bone tissue (in words)” value ([4]; metaphysis tissue, prostaglandin E2 10^−5 M) of the same molecule?
A: The value was “significant reduction”.

Q: What about the Bone calcium level ([4]; metaphysis tissue, prostaglandin E2 10^−6 M alone, 48 h culture) of the same molecule?
A: The Bone calcium level was 163.5 ± 1.47* mg/g dry weight.

Q: Which Bone calcium level [1, 9] does the source give for `CC1=C(/C=C/C(C)=C/C=C/C(C)=C/C=C/C=C(C)/C=C/C=C(C)/C=C/C2=C(C)CCCC2(C)C)C(C)(C)CCC1` [β-carotene, reference compound] here?
A: The Bone calcium level was 215.6 ± 2.78 mg/g dry weight.

Q: What about the Bone calcium level [1, 10] of the same molecule?
A: Its Bone calcium level is 232.2 ± 6.66 mg/g dry weight.

Q: And the “Significant effect on increasing calcium level in the bone tissue (in words)” value ([1]; 48 h culture)?
A: The value was “could not be obtained”.

Q: And the Bone calcium level [2, 9]?
A: The Bone calcium level was 189.4 ± 8.06 mg/g dry weight.

Q: What about the Bone calcium level [2, 10] of the same molecule?
A: The Bone calcium level was 195.4 ± 10.10 mg/g dry weight.

Q: What about the “Significant effect on increasing calcium level in the bone tissue (in words)” value ([2]; 48 h culture) of the same molecule?
A: Its value is “could not be obtained”.

Q: What does the source list for `C[C@@H]1C[C@@H]([C@H](O)CC2CC(=O)NC(=O)C2)C(=O)[C@@H](C)C1` [Cycloheximide, reference compound]?
A: Bone calcium level [1, 11]: 204.0 ± 15.59 mg/g dry weight; Bone calcium level [2, 11]: 156.4 ± 2.81 mg/g dry weight; Bone alkaline phosphatase activity [5]: 534.5 ± 64.2 nmol/min/mg protein; Bone alkaline phosphatase activity [6]: 948.8 ± 21.1 nmol/min/mg protein; Bone DNA level [7]: 1.299 ± 0.127 mg/g bone wet weight; Bone DNA level [8]: 3.001 ± 0.454 mg/g bone wet weight

B1: Parathyroid hormone: peptide hormone secreted from the accessory thyroid, causes bone mineral dissolution (bone resorption); “Parathormone” of Sigma (peptide, UniProt P01270 32-115, looked up)
Parathyroid hormone: SVSEIQLMHNLGKHLNSMERVEWLRKKLQDVHNFVALGAPLAPRDAGSQRPRKKEDNVLVESHEKSLGEADKADVNVLTKAKSQ
modifications: Parathyroid hormone
notes: peptide hormone secreted from the accessory thyroid, causes bone mineral dissolution (bone resorption); “Parathormone” of Sigma
Q: B1 was tested. Which “Effect of PTH on calcium level in the diaphysis tissue (in words)” value [3, 12] did it give?
A: Its value is “significantly reduced”.

Q: What about the Bone calcium level ([3]; diaphysis tissue, parathyroid hormone 10^−7 M alone, 48 h culture) of the same molecule?
A: Its Bone calcium level is 180.0 ± 3.23* mg/g dry weight.

Q: What about the “Effect of PTH on calcium level in the metaphysis tissue (in words)” value [4, 12] of the same molecule?
A: The value was “significantly reduced”.

Q: What about the Bone calcium level ([4]; metaphysis tissue, parathyroid hormone 10^−7 M alone, 48 h culture) of the same molecule?
A: The Bone calcium level was 167.0 ± 0.96* mg/g dry weight.
